{
  "source": "paper PMC7486443",
  "about": "“Generation of Phenothiazine with Potent Anti-TLK1 Activity for Prostate Cancer Therapy” (iScience, 2020)",
  "experiment_in_all_cases": "biochemical",
  "set-up_in_all_cases": "DiscoverX KINOMEscan scanMAX competition binding panel, single concentration, percent of control; remaining binding: dose or concentration left out as unconfirmed",
  "settings_in_all_cases": "KINOMEscan binding, percent of control; read-out: Table S4_SCANMAX REPORT - related to Fig. 1 / Percent Control",
  "key": {"[1]": {"biological_target": "T1, MEK5 (Homo sapiens, UniProt Q13163)", "T1 construct": "gene MAP2K5"}, "[2]": {"biological_target": "CAMK1D (Homo sapiens, UniProt Q8IU85)"}, "[3]": {"biological_target": "BRSK2 (Homo sapiens, UniProt Q8IWQ3)", "sequence (Q8IWQ3 whole entry)": "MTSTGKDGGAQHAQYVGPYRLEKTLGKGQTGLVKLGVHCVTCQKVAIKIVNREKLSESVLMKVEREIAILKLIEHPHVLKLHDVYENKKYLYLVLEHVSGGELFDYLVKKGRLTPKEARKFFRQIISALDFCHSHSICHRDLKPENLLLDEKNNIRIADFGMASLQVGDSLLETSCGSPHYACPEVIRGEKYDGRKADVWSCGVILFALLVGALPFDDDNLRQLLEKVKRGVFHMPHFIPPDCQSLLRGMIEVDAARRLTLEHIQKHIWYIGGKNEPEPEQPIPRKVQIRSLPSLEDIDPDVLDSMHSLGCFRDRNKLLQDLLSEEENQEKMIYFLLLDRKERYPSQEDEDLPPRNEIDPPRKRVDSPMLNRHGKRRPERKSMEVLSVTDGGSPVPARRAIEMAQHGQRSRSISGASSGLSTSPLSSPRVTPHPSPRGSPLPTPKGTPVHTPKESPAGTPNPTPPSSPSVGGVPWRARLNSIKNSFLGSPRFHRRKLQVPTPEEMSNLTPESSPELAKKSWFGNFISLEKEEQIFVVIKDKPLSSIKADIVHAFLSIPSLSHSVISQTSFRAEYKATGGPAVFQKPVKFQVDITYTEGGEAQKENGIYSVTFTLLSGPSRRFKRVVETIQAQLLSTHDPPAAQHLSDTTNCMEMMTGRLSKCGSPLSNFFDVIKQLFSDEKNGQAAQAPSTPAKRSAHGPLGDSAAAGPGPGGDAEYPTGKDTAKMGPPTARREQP"}, "[4]": {"biological_target": "RIOK3 (Homo sapiens, UniProt O14730)"}, "[5]": {"biological_target": "SIK2 (Homo sapiens, UniProt Q9H0K1)"}, "[6]": {"biological_target": "PLK2 (Homo sapiens, UniProt Q9NYY3)", "sequence (Q9NYY3 whole entry)": "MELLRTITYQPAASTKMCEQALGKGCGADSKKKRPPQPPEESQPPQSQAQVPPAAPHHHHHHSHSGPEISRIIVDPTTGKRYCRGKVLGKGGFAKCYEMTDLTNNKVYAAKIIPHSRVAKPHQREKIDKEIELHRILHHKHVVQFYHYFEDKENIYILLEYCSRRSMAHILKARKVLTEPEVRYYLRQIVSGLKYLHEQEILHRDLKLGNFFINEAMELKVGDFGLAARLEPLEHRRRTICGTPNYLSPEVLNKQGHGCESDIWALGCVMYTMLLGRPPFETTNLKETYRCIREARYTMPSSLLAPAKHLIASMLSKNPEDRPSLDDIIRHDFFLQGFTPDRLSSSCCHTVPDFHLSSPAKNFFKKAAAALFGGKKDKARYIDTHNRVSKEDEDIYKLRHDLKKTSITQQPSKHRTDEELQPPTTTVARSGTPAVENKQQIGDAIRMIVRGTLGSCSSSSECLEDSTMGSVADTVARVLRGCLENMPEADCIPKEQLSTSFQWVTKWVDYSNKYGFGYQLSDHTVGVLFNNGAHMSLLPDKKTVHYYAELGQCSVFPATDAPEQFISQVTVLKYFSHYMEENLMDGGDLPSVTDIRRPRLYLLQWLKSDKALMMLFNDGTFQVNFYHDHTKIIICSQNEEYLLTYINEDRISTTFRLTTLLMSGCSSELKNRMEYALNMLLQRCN"}, "[7]": {"biological_target": "PIK3CA(C420R) (Homo sapiens, UniProt P42336, C420R)"}, "[8]": {"biological_target": "T2, JNK1 (Homo sapiens, UniProt P45983)", "T2 construct": "gene MAPK8"}, "[9]": {"biological_target": "T3, PYK2 (Homo sapiens, UniProt Q14289)", "T3 construct": "gene PTK2B"}, "[10]": {"biological_target": "T4, TYK2(JH1domain-catalytic) (Homo sapiens, UniProt P29597)", "T4 construct": "JH1domain-catalytic"}, "[11]": {"biological_target": "FLT3(D835H) (Homo sapiens, UniProt P36888, D835H)"}, "[12]": {"biological_target": "MAP3K4 (Homo sapiens, UniProt Q9Y6R4)", "sequence (Q9Y6R4 whole entry)": "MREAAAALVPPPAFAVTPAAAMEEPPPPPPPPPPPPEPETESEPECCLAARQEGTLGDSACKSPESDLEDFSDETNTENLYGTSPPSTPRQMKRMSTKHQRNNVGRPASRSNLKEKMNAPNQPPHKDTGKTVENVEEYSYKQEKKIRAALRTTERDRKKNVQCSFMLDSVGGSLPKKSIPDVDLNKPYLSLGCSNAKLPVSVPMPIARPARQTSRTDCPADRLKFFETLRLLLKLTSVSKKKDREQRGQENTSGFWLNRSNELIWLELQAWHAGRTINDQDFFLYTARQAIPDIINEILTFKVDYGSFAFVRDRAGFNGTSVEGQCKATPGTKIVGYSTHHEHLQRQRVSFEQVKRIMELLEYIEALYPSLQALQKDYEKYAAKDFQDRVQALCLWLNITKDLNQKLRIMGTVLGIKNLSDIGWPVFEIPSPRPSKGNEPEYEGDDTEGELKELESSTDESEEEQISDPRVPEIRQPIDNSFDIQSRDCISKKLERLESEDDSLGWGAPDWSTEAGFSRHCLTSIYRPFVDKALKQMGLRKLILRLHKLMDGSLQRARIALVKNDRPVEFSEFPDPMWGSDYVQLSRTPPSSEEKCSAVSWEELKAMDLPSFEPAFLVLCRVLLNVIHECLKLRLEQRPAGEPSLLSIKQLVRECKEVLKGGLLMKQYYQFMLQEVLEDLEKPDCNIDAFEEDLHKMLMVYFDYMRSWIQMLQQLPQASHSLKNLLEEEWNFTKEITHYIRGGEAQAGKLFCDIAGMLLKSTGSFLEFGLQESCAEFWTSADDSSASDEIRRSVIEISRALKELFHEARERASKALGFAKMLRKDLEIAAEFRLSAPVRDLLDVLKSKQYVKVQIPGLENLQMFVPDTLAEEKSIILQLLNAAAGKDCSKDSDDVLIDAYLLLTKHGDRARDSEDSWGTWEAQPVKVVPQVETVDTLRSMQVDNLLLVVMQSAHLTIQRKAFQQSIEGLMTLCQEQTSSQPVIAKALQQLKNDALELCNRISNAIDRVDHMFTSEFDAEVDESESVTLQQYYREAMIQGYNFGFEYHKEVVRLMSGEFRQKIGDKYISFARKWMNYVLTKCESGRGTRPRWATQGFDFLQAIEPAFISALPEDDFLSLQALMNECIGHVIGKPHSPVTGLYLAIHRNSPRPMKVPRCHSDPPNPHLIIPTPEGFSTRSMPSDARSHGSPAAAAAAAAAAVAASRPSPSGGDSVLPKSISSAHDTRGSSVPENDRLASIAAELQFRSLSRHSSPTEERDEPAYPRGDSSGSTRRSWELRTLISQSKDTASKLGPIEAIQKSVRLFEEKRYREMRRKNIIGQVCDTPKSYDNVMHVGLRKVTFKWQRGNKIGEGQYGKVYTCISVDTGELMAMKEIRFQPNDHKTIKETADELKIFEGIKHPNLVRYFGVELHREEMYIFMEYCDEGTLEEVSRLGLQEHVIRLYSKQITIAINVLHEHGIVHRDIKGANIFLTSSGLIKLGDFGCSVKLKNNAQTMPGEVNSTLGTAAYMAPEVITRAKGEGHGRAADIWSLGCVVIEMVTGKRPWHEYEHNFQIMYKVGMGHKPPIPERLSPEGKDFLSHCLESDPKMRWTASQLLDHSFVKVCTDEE"}, "[13]": {"biological_target": "KIT-autoinhibited (Homo sapiens, UniProt P10721)"}, "[14]": {"biological_target": "NEK4 (Homo sapiens, UniProt P51957)", "sequence (P51957 whole entry)": "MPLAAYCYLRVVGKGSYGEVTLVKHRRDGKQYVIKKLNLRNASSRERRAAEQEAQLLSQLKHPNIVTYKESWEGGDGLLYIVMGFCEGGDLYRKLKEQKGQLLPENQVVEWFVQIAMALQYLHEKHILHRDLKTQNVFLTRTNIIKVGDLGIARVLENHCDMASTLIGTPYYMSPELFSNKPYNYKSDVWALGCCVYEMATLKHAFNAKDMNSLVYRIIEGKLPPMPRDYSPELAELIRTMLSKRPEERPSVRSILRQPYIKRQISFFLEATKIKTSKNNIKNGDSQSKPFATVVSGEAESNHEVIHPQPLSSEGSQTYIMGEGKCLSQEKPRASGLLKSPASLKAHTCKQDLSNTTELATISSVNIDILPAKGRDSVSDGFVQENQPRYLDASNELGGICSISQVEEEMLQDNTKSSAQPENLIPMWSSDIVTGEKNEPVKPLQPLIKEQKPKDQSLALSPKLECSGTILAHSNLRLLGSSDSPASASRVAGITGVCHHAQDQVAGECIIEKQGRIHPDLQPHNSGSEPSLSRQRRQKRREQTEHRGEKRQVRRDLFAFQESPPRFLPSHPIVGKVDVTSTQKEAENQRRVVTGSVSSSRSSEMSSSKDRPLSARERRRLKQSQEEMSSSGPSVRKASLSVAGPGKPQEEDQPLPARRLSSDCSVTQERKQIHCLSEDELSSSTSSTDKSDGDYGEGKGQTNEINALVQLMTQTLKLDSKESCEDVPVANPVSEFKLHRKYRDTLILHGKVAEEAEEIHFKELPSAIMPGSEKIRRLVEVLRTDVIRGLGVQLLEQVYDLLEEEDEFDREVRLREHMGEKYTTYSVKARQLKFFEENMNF"}, "[15]": {"biological_target": "T5, ARK5 (Homo sapiens, UniProt O60285)", "T5 construct": "gene NUAK1"}, "[16]": {"biological_target": "PRKD3 (Homo sapiens, UniProt O94806)", "sequence (O94806 whole entry)": "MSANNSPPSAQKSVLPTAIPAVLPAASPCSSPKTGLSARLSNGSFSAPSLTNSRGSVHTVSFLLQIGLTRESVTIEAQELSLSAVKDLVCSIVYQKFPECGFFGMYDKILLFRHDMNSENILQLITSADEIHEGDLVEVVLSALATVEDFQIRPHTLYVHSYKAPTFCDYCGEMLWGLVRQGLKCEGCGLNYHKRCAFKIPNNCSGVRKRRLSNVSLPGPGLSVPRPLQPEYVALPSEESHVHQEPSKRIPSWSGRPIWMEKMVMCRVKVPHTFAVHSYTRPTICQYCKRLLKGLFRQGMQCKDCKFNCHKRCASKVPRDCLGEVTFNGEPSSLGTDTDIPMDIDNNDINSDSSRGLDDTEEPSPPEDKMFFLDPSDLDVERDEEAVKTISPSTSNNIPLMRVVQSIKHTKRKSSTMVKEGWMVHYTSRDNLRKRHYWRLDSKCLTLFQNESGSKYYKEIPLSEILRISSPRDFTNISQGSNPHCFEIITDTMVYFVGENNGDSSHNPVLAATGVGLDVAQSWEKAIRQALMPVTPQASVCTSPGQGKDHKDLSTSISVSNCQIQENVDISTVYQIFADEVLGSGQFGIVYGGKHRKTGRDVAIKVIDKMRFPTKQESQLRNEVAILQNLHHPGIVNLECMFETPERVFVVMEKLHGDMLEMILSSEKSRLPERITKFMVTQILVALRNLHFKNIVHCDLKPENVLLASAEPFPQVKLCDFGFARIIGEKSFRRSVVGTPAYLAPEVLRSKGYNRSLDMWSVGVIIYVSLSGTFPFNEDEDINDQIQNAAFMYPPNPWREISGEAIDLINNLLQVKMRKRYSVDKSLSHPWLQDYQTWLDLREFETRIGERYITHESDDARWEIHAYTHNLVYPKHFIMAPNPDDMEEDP"}, "[17]": {"biological_target": "DMPK (Homo sapiens, UniProt Q09013)"}, "[18]": {"biological_target": "CAMK4 (Homo sapiens, UniProt Q16566)"}},
  "data": [
    {"smiles": "c1ccc2c(c1)Sc1ccccc1N2CCN1CCOCC1", "note": "[J54]", "values": [
      {"measurement": "remaining binding", "setting": "[1]", "result": 95, "unit": "%"},
      {"measurement": "remaining binding", "setting": "[2]", "result": 85, "unit": "%"},
      {"measurement": "remaining binding", "setting": "[3]", "result": 100, "unit": "%"},
      {"measurement": "remaining binding", "setting": "[4]", "result": 72, "unit": "%"},
      {"measurement": "remaining binding", "setting": "[5]", "result": 97, "unit": "%"},
      {"measurement": "remaining binding", "setting": "[6]", "result": 100, "unit": "%"},
      {"measurement": "remaining binding", "setting": "[7]", "result": 88, "unit": "%"},
      {"measurement": "remaining binding", "setting": "[8]", "result": 82, "unit": "%"},
      {"measurement": "remaining binding", "setting": "[9]", "result": 100, "unit": "%"},
      {"measurement": "remaining binding", "setting": "[10]", "result": 100, "unit": "%"},
      {"measurement": "remaining binding", "setting": "[11]", "result": 100, "unit": "%"},
      {"measurement": "remaining binding", "setting": "[12]", "result": 97, "unit": "%"},
      {"measurement": "remaining binding", "setting": "[13]", "result": 100, "unit": "%"},
      {"measurement": "remaining binding", "setting": "[14]", "result": 100, "unit": "%"},
      {"measurement": "remaining binding", "setting": "[15]", "result": 79, "unit": "%"},
      {"measurement": "remaining binding", "setting": "[16]", "result": 100, "unit": "%"},
      {"measurement": "remaining binding", "setting": "[17]", "result": 85, "unit": "%"},
      {"measurement": "remaining binding", "setting": "[18]", "result": 94, "unit": "%"}
    ]}
  ]
}
